Where two headings read alike, the source gives them in different places.
Columns and labels:
[1] = Solubility of oily component solid at 25° C. and crystallization test (polyethylene); type: physicochemical; design: key to dissolution state: excellent: “Excellent” indicates uniform dissolution; “good” indicates dispersion; “poor” indicates separation; conditions: for average penetration score: Polyethylene:silicone 1:9, solidified at 25° C. for 2 days, 1/4 cone, after 5 seconds, average of five, larger value means softer; for dissolution state: Polyethylene:silicone mass ratio 1:9, heated at 105° C. for 20 minutes, visual observation
Method: (§1) Oily components being solid at 25° C. and silicones weighed at a mass ratio of 1:9 were heated at 105° C. for 20 minutes to observe the dissolution state. Then, each heated mixture solution was placed in an aluminum cup, allowed to stand at 25° C. for 2 days, and solidified. The penetration score of the solid was measured with a rheometer. The dissolution states according to the visual observation during the heating were shown as follows. “Excellent” indicates uniform dissolution, “good” indicates dispersion, and “poor” indicates separation.
(§2) Moreover, in the rheometer measurement, an automatic cone-penetration measurement test apparatus RPM-101 (manufactured by RIGOSHA CO., LTD.) was used, a ¼ cone was set, and a penetration score after 5 seconds was measured five times. […] A larger value means a softer material.

[2] = Solubility of oily component solid at 25° C. and crystallization test (stearyl alcohol); type: physicochemical; design: key to dissolution state: excellent: “Excellent” indicates uniform dissolution; “good” indicates dispersion; “poor” indicates separation; conditions: for average penetration score: Stearyl alcohol:silicone 1:9, solidified at 25° C. for 2 days, 1/4 cone, after 5 seconds, average of five, larger value means softer; for dissolution state: Stearyl alcohol:silicone mass ratio 1:9, heated at 105° C. for 20 minutes, visual observation
Method: as §1, §2

[3] = known value given for comparison; cited from earlier work
[4] = Solubility test of ethylhexyl methoxycinnamate in silicones; type: physicochemical; design: key to dissolution state: “good” indicates dissolution; “poor” indicates separation; conditions: for dissolution state: shaken 24 hours, observed after 12 days at room temperature
Method: Ethylhexyl methoxycinnamate (sometimes referred to as OMC) and each silicone (sometimes referred to as Sx) weighed at a mass ratio shown in Table 1 were shaken and mixed at room temperature for 24 hours. After 12 days at room temperature, the dissolution state was observed. For each dissolution state, “good” indicates dissolution, and “poor” indicates separation.

[5] = type: physicochemical
Method: (§3) A 1-L four-necked flask was charged with 282.6 g of 1,1,1,3,5,7,7,7-octamethyltetrasiloxane and 1.4 mg of chloroplatinic acid. An ethylene gas was blown into the mixture under stirring, and a hydrosilylation reaction took place while the temperature was held at […]. The reaction was monitored by gas chromatography. When it was observed that the proportion of a target reached 95% or more, the reaction was terminated. Distillation under reduced pressure (120° C., 10 mmHg) was performed to obtain 3,5-diethyl-1,1,1,3,5,7,7,7-octamethyltetrasiloxane as the target. The boiling point was 227° C. and the viscosity was 2.2 mm^2/s.

[6] = Viscosity (kinematic viscosity, Ostwald viscometer); type: physicochemical
Method: Further, since the viscosity of the organosiloxane in the present invention is less than 5 mm^2/s (25° C.), favorable applicability and spreadability are sensed in the same manner as in cases of using decamethylcyclopentasiloxane having a viscosity of 4 mm^2/s (25° C.), or the like. Additionally, the feeling on use is favorable without provoking considerable sticky feeling. If the viscosity is 5 mm^2/s (25° C.) or higher, this causes poor spreading, sticky feeling is provoked, and the feeling on use is poor. Note that the viscosity (kinematic viscosity) values are measured using an Ostwald viscometer.
as §3

Molecule | average penetration score [1] | average penetration score [2] | boiling point [3] [°C] | dissolution state ([4]; Ratio of OMC:Sx 1:1 (mass)) | dissolution state [1] | dissolution state [2] | dissolution state ([4]; Ratio of OMC:Sx 4:6 (mass)) | Dissolution of ethylhexyl methoxycinnamate compared with other silicones ([4]; versus KF-96L-1cs, KF-96L-1.5cs, KF-96L-2cs, TMF-1.5, KF-995, D6) | boiling point [5] [°C] | viscosity [6] [mm^2/s]
C[Si]1(C)O[Si](C)(C)O[Si](C)(C)O[Si](C)(C)O[Si](C)(C)O1 [D5:KF-995, decamethylpentasiloxane] | 22.4 | 34.4 | 210 | – | – | – | – | – | – | –
C[Si]1(C)O[Si](C)(C)O[Si](C)(C)O[Si](C)(C)O[Si](C)(C)O[Si](C)(C)O1 [Example D6, dodecamethylhexasiloxane] | 21.0 | 31.5 | 245 | – | – | – | – | – | – | –
C[Si](C)(C)O[Si](C)(C)O[Si](C)(C)O[Si](C)(C)C [KF-96L-1.5cs, decamethyltetrasiloxane] | – | – | – | poor | – | – | – | – | – | –
C[Si](C)(C)O[Si](C)(C)O[Si](C)(C)C [KF-96L-1cs, octamethyltrisiloxane] | 30.7 | 31.7 | – | poor | good | excellent | – | – | – | –
CC[Si](C)(O[Si](C)(C)C)O[Si](C)(CC)O[Si](C)(C)C (centres unmarked) [Sx of Production Example 1, 3,5-Diethyl-1,1,1,3,5,7,7,7-octamethyltetrasiloxane] | 33.7 | 49.5 | – | good | excellent | excellent | good | dissolved ethylhexyl methoxycinnamate to higher extent | 227 | 2.2
undecamethylpentasiloxane [KF-96L-2cs] | 18.6 | 34.6 | – | poor | Poor | excellent | – | – | – | –

— patent publication US20230172831A1, “COSMETIC” (SHIN-ETSU CHEMICAL CO., LTD., priority 2020, published 2023)
